Assay results as given in patent US12605517B1 (Belhaven BioPharma Inc., priority 2024, dated 2026).

What was measured:
[1] = Human Phase 1 clinical study, plasma epinephrine pharmacokinetics and bioavailability; format: in vivo; settings: for Tmax: read-out: median Tmax (converted)
Method: Twelve human subjects participated in the open-label, single sequence crossover study. […] Nor did the subject participate in Treatment D.
The dry powder formulation was administered via intranasal instillation once using a nasal device (APTAR). The IM solution and materials were supplied by the study site and prepared according to the local procedures. The study drug was administered at approximately the same time on each treatment day. There was a washout period of 20 days between the nasal doses administered as treatment A and treatment D. The subjects were admitted to the clinical site the day before each treatment administration and remained on site until at least 8 hours post-dose, or when applicable, until 24 hours post-dose of the specific treatment period. The study drug was administered after at least a 10 hour fast. A standardized meal was provided approximately 4 hours after dosing.
Blood samples were collected prior to dosing at 60, 30, and 0 minutes before dosing, and after dosing at 2, 5, 7, 10, 15, 20, 25, 30, 45, 60, 90, 120, 180, 240, and 360 minutes. […] The calibration curve range of the bioanalytical method was from 10 to 10000 pg/mL. Recovery was >75% and freeze-thaw, short-term and long-term stability (584 days) were all shown to be acceptable; the analyte was stable under all conditions tested.
Noncompartmental analysis was performed on individual human subject plasma concentration-time data using nominal doses and actual blood sampling times. […] Baseline correction was accomplished using the average of the measured concentrations at nominal times of −60, −30, and 0 minutes before dosing.
Pharmacokinetic analyses were performed using the standard PK analysis software package PHOENIX® WinNonlin version 8.4.
The PK population consists of all human subjects who provided sufficient PK samples for a given treatment to allow for adequate determination of PK parameters of interest.

[2] = Study 101, plasma epinephrine pharmacokinetics; format: in vivo; settings: human, im
Method: Each patient was provided each treatment of the trial with 72-hour washout periods between each treatment, beginning with a 3.5 mg intranasal dose, followed by a 0.3 mg intramuscular dose, followed by a 0.5 mg intramuscular dose, and concluding with a 5.5 mg intranasal dose, with a safety follow-up performed 3 to 5 days after the final dose was administered. The primary endpoints of the study were pharmacokinetic measurements and assessments of comparative bioavailability, while the secondary endpoints were safety concerns and pharmacodynamic assessments.

`CNC[C@H](O)c1ccc(O)c(O)c1` [Epinephrine IM, epinephrine] gave a Cmax ([1]; 0.3 mg IM, read-out: mean baseline-corrected Cmax) of 0.184 ng/mL, a Tmax ([1]; 0.3 mg IM) of 48 min and a Tmax ([1]; 0.5 mg IM) of 48 min. For the same compound, the Tmax ([2]; 0.3 mg, 0.3 mg IM, read-out: Tmax (Mean) (converted)) was 41.4 min, the Tmax ([2]; 0.3 mg, 0.3 mg IM, read-out: Tmax (Median) (converted)) was 48 min and the Tmax ([2]; 0.5 mg, 0.5 mg IM, read-out: Tmax (Mean) (converted)) was 40.9 min. For the same compound, the Tmax ([2]; 0.5 mg, 0.5 mg IM, read-out: Tmax (Median) (converted)) was 48 min.
